# Experimental data reported in patent US8796224B2, “Methods for preparing purified lipopeptides” (priority 2000, dated 2014).
# Experiments:
# susceptible strains = assay: Minimum inhibitory concentration (MIC) in in vitro experiments; assay type: cell-based, gram-positive organisms; conditions: against susceptible strains, compared with vancomycin, 'typically'
# [1] = Hygroscopicity of the amorphous preparation; assay type: physicochemical; conditions: amorphous daptomycin preparation
solubility (physchem; solubility in normal saline) [mg/mL],SMILES,"MIC value, fold lower than that of vancomycin (susceptible strains) [fold]",hygroscopicity [1],solubility (physchem; solubility in ethanol) [mg/mL],solubility (physchem; solubility in water) [mg/mL]
~80,CCCCCCCCCCC(=O)NC(Cc1c[nH]c2ccccc12)C(=O)NC(CC(N)=O)C(=O)NC(CC(=O)O)C(=O)NC1C(=O)NCC(=O)NC(CCCN)C(=O)NC(CC(=O)O)C(=O)NC(C)C(=O)NC(CC(=O)O)C(=O)NCC(=O)NC(CO)C(=O)NC(C(C)CC(=O)O)C(=O)NC(CC(=O)c2ccccc2N)C(=O)OC1C (centres unmarked) [CB-131547],,,,
,CCCCCCCCCC(=O)N[C@@H](Cc1c[nH]c2ccccc12)C(=O)N[C@H](CC(N)=O)C(=O)N[C@@H](CC(=O)O)C(=O)N[C@@H]1C(=O)NCC(=O)N[C@@H](CCCN)C(=O)N[C@@H](CC(=O)O)C(=O)N[C@H](C)C(=O)N[C@@H](CC(=O)O)C(=O)NCC(=O)N[C@H](CO)C(=O)N[C@@H]([C@H](C)CC(=O)O)C(=O)N[C@@H](CC(=O)c2ccccc2N)C(=O)O[C@@H]1C [daptomycin],4,hygroscopic,2.8,> 1000
